Article PMC7537607 (Computational Biology and Chemistry, 2020)
In brackets after ≈: the same amount, converted by molar mass. Several values for one entry are separate records, joined by “and”; a condition that tells them apart may be missing. Equal values may be shown once. Read-outs that look alike come from different tables or passages of the source.

Assays:
Coxsackie virus B4 = test: microbe, parasite or virus in culture; assay type: cell-based; conditions: Enterovirus B, B4, Vero, read-out: EC50 Coxsackie virus B4
Reovirus-1 = test: organism not typed; assay type: cell-based; conditions: for EC50: Vero, read-out: EC50 Reovirus-1
Yellow Fever virus = test: microbe, parasite or virus in culture; assay type: cell-based; conditions: for EC50: Yellow fever virus, Vero, read-out: EC50 Yellow Fever virus
Para-influenza-3 virus = test: organism not typed; assay type: cell-based; conditions: for EC50: Vero, read-out: EC50 Para-influenza-3 virus
Punta Toro virus = test: microbe, parasite or virus in culture; assay type: cell-based; conditions: Vero, read-out: EC50 Punta Toro virus
in vitro = conditions: human; for viability: 48 h
Sindbis virus = test: microbe, parasite or virus in culture; assay type: cell-based; conditions: Vero, read-out: EC50 Sindbis virus
HIV-1 (strain NL4.3) = test: microbe, parasite or virus in culture; assay type: cell-based
[1] = Cytotoxicity % Viability Exp - 1, 10 μg/mL
[2] = Cytotoxicity % Viability Exp - 1, 100 μg/mL

Compound | EC50 (Coxsackie virus B4) | EC50 (Reovirus-1) | SI (Yellow Fever Virus), ratio of MCC to EC50 (Yellow Fever virus) | EC50 (Yellow Fever virus) | EC50 (Para-influenza-3 virus) | EC50 (Punta Toro virus) | viability (in vitro; [1]) | viability (in vitro; [2]) | EC50 (Sindbis virus) | Minimum cytotoxic concentration (MCC) (Vero cells; African green monkey) | EC50 Reovirus-1 (Reovirus-1) | EC50 Para-influenza-3 virus (Para-influenza-3 virus) | Minimum cytotoxic concentration (MCC) (Vero cells) | Minimum cytotoxic concentration (MCC), molar value in parentheses (Vero cells) | SI (Selectivity index ratio CC50/IC50) (HIV-1 (strain NL4.3)) | IC50 (HIV-1 (strain NL4.3); Human immunodeficiency virus 1, TZM-bl, read-out: IC50 (HIV infection)) | CC50 (in vitro) | viability (in vitro; Cytotoxicity % Viability Exp - 2, 1 μg/mL) | viability (in vitro; Cytotoxicity % Viability Exp - 2, 5 μg/mL) | viability (in vitro; Cytotoxicity % Viability Exp - 2, 10 μg/mL)
O=[N+]([O-])c1cc2nc(Cl)n(CCCO)c2cc1[N+](=O)[O-] [Compound 4b, 3-(2-Chloro-5,6-dinitro-1H-benzimidazol-1-yl)propan-1-ol] | > 100 µg/mL | > 100 µg/mL | 1 | > 100 µg/mL | > 100 µg/mL | > 100 µg/mL | 92.1% | 90.9% | > 100 µg/mL | ≥100 µg/mL |  |  |  |  |  |  |  |  |  | 
OCCn1c(Cl)nc2ccccc21 [Compound 1a, 2-(2-Chloro-1H-benzimidazol-1-yl)ethan-1-ol] | > 100 µg/mL | > 100 µg/mL | 1 | > 100 µg/mL | > 100 µg/mL | > 100 µg/mL | 90.1% | 53.6% | > 100 µg/mL | >100 µg/mL |  |  |  |  |  |  |  |  |  | 
OCCCn1c(Cl)nc2cc(Br)c(Br)cc21 [Compound 3b, 3-(5,6-Dibromo-2-chloro-1H-benzimidazol-1-yl)propan-1-ol] | > 100 µg/mL | > 100 µg/mL | 1 | > 100 µg/mL | > 100 µg/mL | > 100 µg/mL | 102% | 79.8% | > 100 µg/mL | >100 µg/mL |  |  |  |  |  |  |  |  |  | 
COc1c(C)c2c(c(O)c1C/C=C(\C)CCC(=O)O)C(=O)OC2 [Mycophenolic acid, reference compound] | > 100 µM | 6 µM | 125 | 0.8 µM | 0.6 µM | 14 µM |  |  | 8.9 µM |  |  |  |  |  |  |  |  |  |  | 
dextran sulfate [DS - 10.000, reference compound] |  |  | 125 |  |  |  |  |  |  |  | >100 µg/mL | >100 µg/mL | >100 (0.01μM) μg/mL | >100 (0.01μM) |  |  |  |  |  | 
O=[N+]([O-])c1cc2nc(Cl)n(CCO)c2cc1[N+](=O)[O-] [Compound 4a, 2-(2-Chloro-5,6-dinitro-1H-benzimidazol-1-yl)ethan-1-ol] | > 100 µg/mL | > 100 µg/mL | 1 | > 100 µg/mL | > 100 µg/mL | > 100 µg/mL | 99.9% | 11.2% | > 100 µg/mL | >100 µg/mL |  |  |  |  |  |  |  |  |  | 
O=[N+]([O-])c1ccc2c(c1)nc(Cl)n2CCCO [Compound 2b, 3-(2-Chloro-5-nitro-1H-benzimidazol-1-yl)propan-1-ol] | > 100 µg/mL | > 100 µg/mL |  |  | > 100 µg/mL | > 100 µg/mL | 91.2% | 69.1% | > 100 µg/mL |  |  |  |  |  |  |  |  |  |  | 
NC(=O)c1ncn([C@@H]2O[C@H](CO)[C@@H](O)[C@H]2O)n1 [Ribavirin, reference compound] | > 250 µM | > 250 µM | 1 | > 250 µM | 250 µM | > 250 µM |  |  | > 250 µM |  |  |  |  |  |  |  |  |  |  | 
O=[N+]([O-])c1ccc2c(c1)nc(Cl)n2CCO [Compound 2a, 2-(2-Chloro-5-nitro-1H-benzimidazol-1-yl)ethan-1-ol] | > 100 µg/mL | > 100 µg/mL | 1 | > 100 µg/mL | > 100 µg/mL | > 100 µg/mL | 104% | 40.4% | > 100 µg/mL | ≥100 µg/mL |  |  |  |  |  |  |  |  |  | 
OCCn1c(Cl)nc2cc(Br)c(Br)cc21 [Compound 3a, 2-(5,6-Dibromo-2-chloro-1H-benzimidazol-1-yl)ethan-1-ol] | > 100 µg/mL | > 100 µg/mL | 1 | > 100 µg/mL | > 100 µg/mL | > 100 µg/mL | 18.5% | 0.96% | > 100 µg/mL | 100 µg/mL |  |  |  |  | 2.73 | 1.37 µg/mL (≈ 3.87 µM) | 3.74 µg/mL and 10.5 µM | 83.7% | 49% | 13.7%
OCCCn1c(Cl)nc2ccccc21 [Compound 1b, 3-(2-Chloro-1H-benzimidazol-1-yl)propan-1-ol] | > 100 µg/mL | > 100 µg/mL | 1 | > 100 µg/mL | > 100 µg/mL | > 100 µg/mL | 92.6% | 58.6% | > 100 µg/mL | >100 µg/mL |  |  |  |  |  |  |  |  |  | 
Cc1ccnc2c1NC(=O)c1cccnc1N2C1CC1 [Nevirapine, reference compound] |  |  |  |  |  |  |  |  |  |  |  |  |  |  | >200 |  |  |  |  | 
